The EC50 is the concentration needed to bring the measured effect to its halfway point.

The values below come from patent US12139520B2 (priority 2020, dated 2024).

Numbered stars: 1 amine (or outer) side, 2 acyl side, 3 side chain; on linkers, the order of the positions; unused ones are H or OH. Bridge positions count the residues as written; N and C are the ends. Square brackets hold non-standard residues; d marks the D form. Peptide text beside a SMILES is read from it. * marks the point of attachment. C20 diacid = O=C(O)CCCCCCCCCCCCCCCCCCC(=O)*; γGlu = O=C(O)[C@H](CCC(=O)[*:2])N[*:1]; Hyp = O=C(O)[C@@H]1C[C@@H](O)CN1 Some results are limits rather than exact numbers.

For one series, the target named is T1, hAMY3 receptor (Homo sapiens, UniProt O60896+P30988).
T1 sequence (P30988 25-474): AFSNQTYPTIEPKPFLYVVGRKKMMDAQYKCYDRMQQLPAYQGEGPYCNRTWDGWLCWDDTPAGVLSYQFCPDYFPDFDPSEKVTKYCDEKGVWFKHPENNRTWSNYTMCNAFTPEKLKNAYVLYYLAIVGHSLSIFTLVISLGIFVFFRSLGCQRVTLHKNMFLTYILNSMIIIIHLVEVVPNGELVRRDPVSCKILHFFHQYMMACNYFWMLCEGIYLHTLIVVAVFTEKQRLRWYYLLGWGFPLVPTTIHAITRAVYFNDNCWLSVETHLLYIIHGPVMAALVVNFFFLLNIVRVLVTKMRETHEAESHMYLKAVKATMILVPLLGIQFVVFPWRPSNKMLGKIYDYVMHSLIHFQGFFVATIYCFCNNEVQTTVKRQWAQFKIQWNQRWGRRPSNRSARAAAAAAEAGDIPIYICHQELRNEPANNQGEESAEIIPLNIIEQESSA
T1 sequence (O60896 24-148 partner): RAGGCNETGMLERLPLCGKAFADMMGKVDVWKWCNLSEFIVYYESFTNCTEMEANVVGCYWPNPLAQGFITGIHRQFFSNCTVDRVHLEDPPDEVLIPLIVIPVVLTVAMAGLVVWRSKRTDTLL
Briefly: cAMP assay for in vitro receptor activation, hAMY3-R. Type of series: cell-based. As to conditions: cAMP assay, hAMY3 receptor; read-out: hAMY3R EC50. Summed up:
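Read-out is TR-FRET cAMP signal, recorded one hour after reagent addition, following 30 min room-temperature stimulation of stable hAMY3 cells with graded compound doses in casein/IBMX (0.5 mM) buffer.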

For the next series, the target named is hAM1 receptor (Homo sapiens, UniProt O60895+Q16602). Briefly: cAMP assay for in vitro receptor activation, hAM1-R. Type of series: cell-based. The following applies: cAMP assay, hAM1 receptor; read-out: hAM1R EC50. On the procedure: General Protocols for cAMP Assays for Measuring In Vitro Receptor Activation
Sequence of hAM1 receptor (Q16602 23-461): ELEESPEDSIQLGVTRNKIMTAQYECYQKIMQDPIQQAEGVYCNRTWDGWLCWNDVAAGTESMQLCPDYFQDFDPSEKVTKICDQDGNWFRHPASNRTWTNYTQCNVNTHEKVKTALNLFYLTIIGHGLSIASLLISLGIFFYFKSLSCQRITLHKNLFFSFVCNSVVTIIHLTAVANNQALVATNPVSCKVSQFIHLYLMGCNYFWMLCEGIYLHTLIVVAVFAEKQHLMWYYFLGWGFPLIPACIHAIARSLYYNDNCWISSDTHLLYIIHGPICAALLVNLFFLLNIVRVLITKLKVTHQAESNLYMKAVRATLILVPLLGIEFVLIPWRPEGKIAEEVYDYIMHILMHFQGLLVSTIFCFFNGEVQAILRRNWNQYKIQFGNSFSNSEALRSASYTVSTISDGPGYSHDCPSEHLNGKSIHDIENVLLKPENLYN
Sequence of hAM1 receptor (O60895 43-175 partner): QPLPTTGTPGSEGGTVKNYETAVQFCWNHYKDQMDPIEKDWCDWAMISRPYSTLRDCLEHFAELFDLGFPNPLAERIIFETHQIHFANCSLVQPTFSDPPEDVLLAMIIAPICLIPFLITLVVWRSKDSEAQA
Cells stably overexpressing the hAM1 receptor were obtained from Ogeda (now Astellas Pharma), sub-cloned and a monoclonal cell-line with an appropriate assay-window was expanded, aliquoted and frozen. An aliquot was thawed and plated in DPBS with 0.05% casein and 0.5 mM IBMX as 8000 cells/well in a 384-well format.
(In general: cAMP levels reflect the balance of adenylyl cyclase and phosphodiesterase activity.)

A short description of series [1]: Physical stability of peptide analogues (Thioflavin T fibrillation). It counts as physicochemical. As to conditions: maximum ThT signal normalized between hAMY maximum and buffer background; 40° C., shaking, four days; pH 7 per table title. Summed up:
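Peptides in 50 mM sodium acetate pH 4 or 50 mM sodium phosphate pH 7 were preincubated 1 h, mixed with 4 μM ThT, held at 40° C with 700 rpm shaking before each read. Fluorescence (ex 450/em 480 nm) every 10 min for four days; LOESS-smoothed maximum signal normalized in percent between hAMY and buffer.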

In the case of `CC[C@H](C)[C@H](NC(=O)[C@H](CCC(N)=O)NC(=O)[C@H](CC(=O)O)NC(=O)[C@H](C)NC(=O)[C@H](CC(C)C)NC(=O)[C@H](CCCNC(=N)N)NC(=O)[C@H](CCC(N)=O)NC(=O)[C@@H](NC(=O)[C@@H](NC(=O)[C@@H]1CSSC[C@H](NC(=O)[C@H](CCCCN)NC(=O)CC[C@H](NC(=O)CCCCCCCCCCCCCCCCCCC(=O)O)C(=O)O)C(=O)N[C@@H](CC(N)=O)C(=O)N[C@@H]([C@@H](C)O)C(=O)N[C@@H](C)C(=O)N[C@@H]([C@@H](C)O)C(=O)N1)[C@@H](C)O)C(C)C)C(=O)N[C@@H](Cc1ccc(O)cc1)C(=O)N[C@@H](CCC(N)=O)C(=O)N[C@@H](Cc1ccccc1)C(=O)N[C@H](C(=O)N[C@@H](CC(=O)O)C(=O)N[C@@H](CCCCN)C(=O)N[C@@H](CC(=O)O)C(=O)N[C@@H](CCCCN)C(=O)N[C@@H](CC(=O)O)C(=O)N[C@@H](CC(N)=O)C(=O)N[C@H](C(=O)N[C@@H](C)C(=O)N1CCC[C@H]1C(=O)N1CCC[C@H]1C(=O)N[C@H](C(=O)N[C@@H](CC(N)=O)C(=O)N[C@H](C(=O)NCC(=O)N[C@@H](CO)C(=O)N[C@@H](CC(N)=O)C(=O)NCC(=O)N1C[C@H](O)C[C@H]1C(N)=O)C(C)C)[C@@H](C)O)C(C)C)[C@@H](C)O` [compound 5] ({C20 diacid-γGlu}-KCNTATCTVQRLADQIYQFTDKDKDNVAPPTNVGSNG[Hyp]-NH2; disulfide 2-7), the figures for the EC50 on hAMY3 receptor and on hAM1 receptor were 0.006 nM and more than 5000 nM, respectively. With `CC[C@H](C)[C@H](NC(=O)[C@H](C)NC(=O)CNC(=O)[C@H](Cc1ccccc1)NC(=O)[C@H](CC(N)=O)NC(=O)[C@H](CC(N)=O)NC(=O)[C@H](CO)NC(=O)[C@H](CO)NC(=O)[C@H](Cc1c[nH]cn1)NC(=O)[C@@H](NC(=O)[C@H](CC(C)C)NC(=O)[C@H](Cc1ccccc1)NC(=O)[C@H](CC(N)=O)NC(=O)[C@H](C)NC(=O)[C@H](CC(C)C)NC(=O)[C@H](CCCNC(=N)N)NC(=O)[C@H](CCC(N)=O)NC(=O)[C@@H](NC(=O)[C@H](C)NC(=O)[C@@H]1CSSC[C@H](NC(=O)[C@@H](N)CCCCN)C(=O)N[C@@H](CC(N)=O)C(=O)N[C@@H]([C@@H](C)O)C(=O)N[C@@H](C)C(=O)N[C@@H]([C@@H](C)O)C(=O)N1)[C@@H](C)O)C(C)C)C(=O)N[C@@H](CC(C)C)C(=O)N1CCC[C@H]1C(=O)N[C@@H](CO)C(=O)N[C@H](C(=O)N[C@@H](CCCCN)C(=O)N[C@H](C(=O)NCC(=O)N[C@@H](CO)C(=O)N[C@@H](CC(N)=O)C(=O)NCC(=O)N[C@@H](Cc1ccc(O)cc1)C(N)=O)[C@@H](C)CC)[C@@H](C)O` [compound 207] (H-KCNTATCATQRLANFLVHSSNNFGAILPSTKIGSNGY-NH2; disulfide 2-7; N-terminus assumed), the concentration giving a half-maximal response (EC50) on hAM1 receptor is more than 5000 nM. With `CC[C@H](C)[C@H](NC(=O)[C@H](CCC(N)=O)NC(=O)[C@H](Cc1c[nH]cn1)NC(=O)[C@H](C)NC(=O)[C@H](CC(C)C)NC(=O)[C@H](CCCNC(=N)N)NC(=O)[C@H](CCC(N)=O)NC(=O)[C@@H](NC(=O)[C@@H](NC(=O)[C@@H]1CSSC[C@H](NC(=O)[C@H](CCCCN)NC(=O)CC[C@H](NC(=O)CCCCCCCCCCCCCCCCCCC(=O)O)C(=O)O)C(=O)N[C@@H](CC(N)=O)C(=O)N[C@@H]([C@@H](C)O)C(=O)N[C@@H](Cc2ccc(O)cc2)C(=O)N[C@@H]([C@@H](C)O)C(=O)N1)[C@@H](C)O)C(C)C)C(=O)N[C@@H](Cc1ccc(O)cc1)C(=O)N[C@@H](CCC(N)=O)C(=O)N[C@@H](Cc1ccccc1)C(=O)N[C@H](C(=O)N[C@@H](CC(=O)O)C(=O)N[C@@H](CCCCN)C(=O)N[C@@H](CC(=O)O)C(=O)N[C@@H](CCCCN)C(=O)N[C@@H](CC(=O)O)C(=O)N[C@@H](CC(N)=O)C(=O)N[C@H](C(=O)N[C@@H](C)C(=O)N1CCC[C@H]1C(=O)N1CCC[C@H]1C(=O)N[C@H](C(=O)N[C@@H](CC(N)=O)C(=O)N[C@H](C(=O)NCC(=O)N[C@@H](CO)C(=O)N[C@@H](CC(N)=O)C(=O)NCC(=O)N1C[C@H](O)C[C@H]1C(N)=O)C(C)C)[C@@H](C)O)C(C)C)[C@@H](C)O` [compound 231] ({C20 diacid-γGlu}-KCNTYTCTVQRLAHQIYQFTDKDKDNVAPPTNVGSNG[Hyp]-NH2; disulfide 2-7), at hAM1 receptor, the concentration for a half-maximal effect (EC50) was more than 5000 nM.

Consider `CC[C@H](C)[C@H](NC(=O)[C@H](CCCCN)NC(=O)[C@H](CO)NC(=O)[C@H](CCCNC(=N)N)NC(=O)[C@@H]1CCCN1C(=O)[C@H](C)NC(=O)[C@@H](NC(=O)[C@H](CC(N)=O)NC(=O)[C@H](CC(=O)O)NC(=O)[C@H](CCCCN)NC(=O)[C@H](CC(=O)O)NC(=O)[C@H](CCCCN)NC(=O)[C@H](CC(=O)O)NC(=O)[C@@H](NC(=O)[C@H](Cc1ccccc1)NC(=O)[C@H](CCC(N)=O)NC(=O)[C@@H](NC(=O)[C@H](CC(C)C)NC(=O)[C@H](Cc1ccccc1)NC(=O)[C@H](CC(N)=O)NC(=O)[C@H](C)NC(=O)[C@H](CC(C)C)NC(=O)[C@H](CCCNC(=N)N)NC(=O)[C@H](CCC(N)=O)NC(=O)[C@@H](NC(=O)[C@H](C)NC(=O)[C@@H]1CSSC[C@H](NC(=O)[C@@H](N)CCCCN)C(=O)N[C@@H](CC(N)=O)C(=O)N[C@@H]([C@@H](C)O)C(=O)N[C@@H](C)C(=O)N[C@@H]([C@@H](C)O)C(=O)N1)[C@@H](C)O)C(C)C)[C@@H](C)O)C(C)C)C(=O)N[C@@H](CO)C(=O)N1CCC[C@H]1C(=O)N[C@@H](CCC(N)=O)C(=O)NCC(=O)N[C@@H](Cc1ccc(O)cc1)C(N)=O` [compound 234] (H-KCNTATCATQRLANFLVQFTDKDKDNVAPRSKISPQGY-NH2; disulfide 2-7; N-terminus assumed), for which, on hAM1 receptor, the concentration for a half-maximal effect (EC50) was more than 5000 nM. Take `CC[C@H](C)[C@H](NC(=O)[C@H](CCCCN)NC(=O)[C@@H](NC(=O)[C@H](CCCNC(=N)N)NC(=O)[C@@H]1CCCN1C(=O)[C@H](C)NC(=O)[C@@H](NC(=O)[C@H](CC(N)=O)NC(=O)[C@H](CC(=O)O)NC(=O)[C@H](CCCCN)NC(=O)[C@H](CC(=O)O)NC(=O)[C@H](CCCCN)NC(=O)[C@H](CC(=O)O)NC(=O)[C@@H](NC(=O)[C@H](Cc1ccccc1)NC(=O)[C@H](CCC(N)=O)NC(=O)[C@H](Cc1ccc(O)cc1)NC(=O)[C@@H](NC(=O)[C@H](CCC(N)=O)NC(=O)[C@H](Cc1c[nH]cn1)NC(=O)[C@H](C)NC(=O)[C@H](CC(C)C)NC(=O)[C@H](CCCNC(=N)N)NC(=O)[C@H](CCC(N)=O)NC(=O)[C@@H](NC(=O)[C@@H](NC(=O)[C@@H]1CSSC[C@H](NC(=O)CN)C(=O)N[C@@H](CCCNC(=N)N)C(=O)N[C@@H](Cc2ccccc2)C(=O)NCC(=O)N[C@@H]([C@@H](C)O)C(=O)N1)[C@@H](C)O)C(C)C)[C@@H](C)CC)[C@@H](C)O)C(C)C)[C@@H](C)O)C(=O)NCC(=O)N1CCC[C@H]1C(=O)N[C@@H](CCC(N)=O)C(=O)NCC(=O)N[C@@H](Cc1ccc(O)cc1)C(N)=O` [compound 391] (H-GCRFGTCTVQRLAHQIYQFTDKDKDNVAPRTKIGPQGY-NH2; disulfide 2-7; N-terminus assumed): at hAMY3 receptor, the EC50 was 0.068 nM. Moreover, the “Max ThT signal (%)” value in series [1] is given as 3.700%.
